In patent publication US20250361268A1, “NOVEL ANTI-INFLAMMATORY PEPTIDE AND USE THEREOF” (NOVACELL TECHNOLOGY INC., priority 2022, published 2025):
Blank lines part the entries; values can stand above or below the molecule they belong to. Peptide text beside a SMILES is read from it.

What was measured:
[1] = biological target: T1, FPR2 (Homo sapiens, UniProt P25090); test: Change in calcium activity by peptide (Fura-2) in RBL cells overexpressing FPR2; assay type: cell-based; details: calcium activity (Fura-2), graded per Table 3, read-out: EC50 for [Ca^2+] FPR2
T1 construct: expressed in transfected cells; host or cells: RBL cells (RBL-FPR2)
T1 sequence (P25090 1-351): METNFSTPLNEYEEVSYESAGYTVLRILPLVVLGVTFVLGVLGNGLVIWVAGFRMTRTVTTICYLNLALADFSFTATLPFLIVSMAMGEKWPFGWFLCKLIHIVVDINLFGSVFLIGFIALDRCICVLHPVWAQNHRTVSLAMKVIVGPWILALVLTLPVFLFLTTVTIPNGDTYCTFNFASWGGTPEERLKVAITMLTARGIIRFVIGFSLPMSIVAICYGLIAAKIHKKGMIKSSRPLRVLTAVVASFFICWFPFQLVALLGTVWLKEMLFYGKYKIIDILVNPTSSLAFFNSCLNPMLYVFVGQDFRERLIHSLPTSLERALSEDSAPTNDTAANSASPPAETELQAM
Outline: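 Rat basophilic leukemia cells overexpressing FPR2 loaded with Fura-2 (37 °C 1 h, then RT 30 min dark); peptides (0.5 mM stocks in water or 50% DMSO) diluted in HBSS + 20 mM HEPES and added on a plate reader, intracellular Ca2+ change recorded.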

[2] = biological target: T2, FPR1 (Homo sapiens, UniProt P21462); test: Change in calcium activity by peptide, FPR1 activation effect; assay type: cell-based; details: calcium activity (Fura-2), graded per Table 3, read-out: EC50 for [Ca^2+] FPR1
T2 sequence (P21462 1-350): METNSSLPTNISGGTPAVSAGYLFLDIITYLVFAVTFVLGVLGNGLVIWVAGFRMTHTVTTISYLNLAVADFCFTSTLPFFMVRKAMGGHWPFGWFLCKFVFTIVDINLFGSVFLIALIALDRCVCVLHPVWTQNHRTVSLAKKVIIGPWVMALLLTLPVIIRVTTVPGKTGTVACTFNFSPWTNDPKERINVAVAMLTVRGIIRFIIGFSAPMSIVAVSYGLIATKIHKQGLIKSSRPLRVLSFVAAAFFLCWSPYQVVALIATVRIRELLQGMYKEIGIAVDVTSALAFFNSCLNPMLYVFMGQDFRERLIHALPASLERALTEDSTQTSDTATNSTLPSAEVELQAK
Outline: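 Cells plated at 3×10^5 per well the day before were loaded with Fura-2 for 1 h at 37 °C, then kept 30 min in the dark at room temperature. Peptide-evoked calcium changes were recorded on a FlexStation 3.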

[3] = biological target: T3, FPR1 (UniProt P21462 1-350, limits assumed); test: cell-based or functional assay
T3 sequence (looked up): T2 sequence (P21462 1-350)

Molecule: CSCC[C@H](NC(=O)[C@@H](N)CCCNC(=N)N)C(=O)N[C@@H](CCCNC(=N)N)C(=O)N[C@@H](Cc1ccc(O)cc1)C(=O)N[C@@H](Cc1c[nH]c2ccccc12)C(=O)N1CCC[C@H]1C(=O)N[C@H](CCSC)C(N)=O [Peptide 106] (HELM PEPTIDE1{R.M.R.Y.W.P.[dM].[am]}$$$$V2.0)
EC50 [1]: < 10 nM | EC50 [2]: 101 to 1000 nM

Molecule: CCCCCCCC(=O)N[C@@H](CCCNC(=N)N)C(=O)N[C@@H](CCSC)C(=O)N[C@@H](CCCNC(=N)N)C(=O)N[C@@H](Cc1ccc(O)cc1)C(=O)N[C@@H](CCCCN)C(=O)N[C@H](C(=O)N[C@H](CCSC)C(N)=O)C(C)C [Peptide 8] (HELM PEPTIDE1{[CCCCCCCC(=O)[*:2]].R.M.R.Y.K.V.[dM].[am]}$$$$V2.0)
EC50 [1]: 11 to 100 nM | EC50 [2]: > 10000 nM

Molecule: CSCC[C@H](NC(=O)[C@H](CCCNC(=N)N)NC(C)=O)C(=O)N[C@@H](CCCNC(=N)N)C(=O)N[C@@H](Cc1ccc(O)cc1)C(=O)N[C@@H](CCCCN)C(=O)N1CCC[C@H]1C(=O)N[C@H](CCSC)C(N)=O [Peptide 51] (HELM PEPTIDE1{[ac].R.M.R.Y.K.P.[dM].[am]}$$$$V2.0)
EC50 [1]: < 10 nM | EC50 [2]: > 10000 nM

Molecule: CC[C@H](C)[C@H](N)C(=O)N[C@@H](CCCCN)C(=O)N[C@@H](Cc1ccccc1)C(=O)N[C@@H](Cc1c[nH]c2ccccc12)C(=O)N[C@@H](CCSC)C(=O)N[C@H](CCSC)C(N)=O [Peptide 129] (HELM PEPTIDE1{I.K.F.W.M.[dM].[am]}$$$$V2.0)
EC50 [1]: 11 to 100 nM | EC50 [2]: > 10000 nM

Molecule: CCCC(=O)N[C@@H](CCSC)C(=O)N[C@@H](CCCCN)C(=O)N[C@@H](Cc1ccc(O)cc1)C(=O)N[C@@H](Cc1c[nH]c2ccccc12)C(=O)N[C@@H](Cc1ccc(O)cc1)C(=O)N[C@H](CCSC)C(N)=O [Peptide 91] (HELM PEPTIDE1{[CCCC(=O)[*:2]].M.K.Y.W.Y.[dM].[am]}$$$$V2.0)
EC50 [1]: 11 to 100 nM | EC50 [2]: > 10000 nM

Molecule: CSCC[C@H](NC(=O)[C@H](CCCNC(=N)N)NC(C)=O)C(=O)N[C@@H](CCCNC(=N)N)C(=O)N[C@@H](Cc1ccc(O)cc1)C(=O)N[C@@H](Cc1ccc(O)cc1)C(=O)N1CCC[C@H]1C(=O)N[C@H](CCSC)C(N)=O [Peptide 119] (HELM PEPTIDE1{[ac].R.M.R.Y.Y.P.[dM].[am]}$$$$V2.0)
EC50 [1]: < 10 nM | EC50 [2]: 101 to 1000 nM

B1: peptide of SEQ ID NO 43 (peptide)
peptide: MRYKYM
HELM: PEPTIDE1{[CCCC(=O)[*:2]].M.R.Y.K.Y.[dM].[am]}$$$$V2.0
SMILES: CCCC(=O)N[C@@H](CCSC)C(=O)N[C@@H](CCCNC(=N)N)C(=O)N[C@@H](Cc1ccc(O)cc1)C(=O)N[C@@H](CCCCN)C(=O)N[C@@H](Cc1ccc(O)cc1)C(=O)N[C@H](CCSC)C(N)=O
EC50 for [Ca2+] [3]: > 10000 nM

Next, values leading:

EC50 [1]: < 10 nM | EC50 [2]: > 10000 nM
Molecule: CSCC[C@H](NC(=O)[C@@H](N)CCCNC(=N)N)C(=O)N[C@@H](CCCNC(=N)N)C(=O)N[C@@H](Cc1ccc(O)cc1)C(=O)N[C@@H](CCCNC(=N)N)C(=O)N[C@H](C(=O)N[C@H](CCSC)C(N)=O)C(C)C [Peptide 30] (HELM PEPTIDE1{R.M.R.Y.R.V.[dM].[am]}$$$$V2.0)

EC50 [1]: < 10 nM | EC50 [2]: 1000 to 10000 nM
Molecule: CCCCCCCC(=O)N[C@@H](CCCNC(=N)N)C(=O)N[C@@H](CCSC)C(=O)N[C@@H](CCCNC(=N)N)C(=O)N[C@@H](Cc1ccc(O)cc1)C(=O)N[C@@H](Cc1c[nH]c2ccccc12)C(=O)N1CCC[C@H]1C(=O)N[C@H](CCSC)C(N)=O [Peptide 109] (HELM PEPTIDE1{[CCCCCCCC(=O)[*:2]].R.M.R.Y.W.P.[dM].[am]}$$$$V2.0)

EC50 [1]: 11 to 100 nM | EC50 [2]: 1000 to 10000 nM
Molecule: CSCC[C@@H](NC(=O)[C@@H](NC(=O)[C@H](Cc1c[nH]c2ccccc12)NC(=O)[C@H](Cc1ccc(O)cc1)NC(=O)[C@H](CCCCN)NC(=O)[C@H](Cc1c[nH]c2ccccc12)NC(=O)[C@H](CCCCN)NC(C)=O)C(C)C)C(N)=O [Peptide 103] (HELM PEPTIDE1{[ac].K.W.K.Y.W.V.[dM].[am]}$$$$V2.0)
